Measurements: PubChem BioAssay AID788 (SRMLSC, 2007)
Activity calls are given as the source filed them. The rule behind the calls is not given here.

Key:
[1] = test system: S. cerevisiae vps1Δ apl2Δ growth inhibition, dose response; assay: vps1Δ apl2Δ double mutant yeast growth inhibitors – S. cerevisiae, background strain comparison, post-Golgi transport modulator project, dose response (AID 788)
[2] = test system: S. cerevisiae wild-type background strain growth inhibition; assay: as above; conditions: S. cerevisiae vps1Δ apl2Δ growth inhibition, dose response; measured here: wild-type background strain growth

## Cc1ccc(S(=O)(=O)c2c(C)nn(C(C)(C)C)c2OC(=O)c2ccc(Br)o2)cc1
[1]
  IC50: > 10 µM (inactive)
[2]
  IC50: > 10 µM

## O=C(C1COc2ccccc2O1)N1CCN(Cc2ccc3c(c2)OCO3)CC1 (stereo not given)
[1]
  IC50: 10.4 µM
[2]
  IC50: > 10 µM

## O=C(Nc1nnc(-c2ccc3c(c2)CCCC3)o1)c1ccccc1Cl
[1]
  IC50: 14.6 µM (inactive)
[2]
  IC50: 10.7 µM

## O=C(NCC(=O)N(c1cccnc1)C(C(=O)NCc1ccco1)c1ccccc1)c1ccco1 (stereo not given)
[1]
  IC50: > 10 µM (inactive)
[2]
  IC50: > 10 µM

## COc1cccc(NC(=O)c2ccc(CN3CCN(c4ccccc4)CC3)cc2)c1
[1]
  IC50: > 10 µM (inactive)
[2]
  IC50: > 10 µM

## COc1ccc(-c2nnc(CSc3nc4ccccc4c(=O)n3C)o2)cc1OC
[1]
  IC50: > 10 µM (inactive)
[2]
  IC50: > 10 µM

## CCOC(=O)C1=C(CSc2nc(-c3ccccc3)ccc2C#N)OC(N)=C(C#N)C1c1cccnc1 (stereo not given)
[1]
  IC50: > 10 µM (inactive)
[2]
  IC50: > 10 µM

## CC(C)OC(=O)CSc1nnc(-c2ccc(Cl)cc2)n1N
[1]
  IC50: > 10 µM (inactive)
[2]
  IC50: > 10 µM

## CCCCCCCCNc1ncnc2ccccc12
[1]
  IC50: > 10 µM (inactive)
[2]
  IC50: 14.8 µM

## Clc1ccc(-c2cnc(Oc3ccccc3)nc2)cc1
[1]
  IC50: > 10 µM (inactive)
[2]
  IC50: > 10 µM

## CC(=O)c1ccc(N2CCN(C(=O)c3ccc(Br)cc3)CC2)c(F)c1
[1]
  IC50: 0.628 µM
[2]
  IC50: 6.58 µM

## O=C1OCC(CO)(CO)N=C1NNc1ccc(Cl)c(Cl)c1
[1]
  IC50: 2.85 µM
[2]
  IC50: 3.35 µM

## Cc1ccc(-c2csc3nnc(SCC(=O)Nc4cccc(C)n4)n23)cc1
[1]
  IC50: > 10 µM (inactive)
[2]
  IC50: > 10 µM

## COc1cc2[nH]c(=S)n(CCCN3CCOCC3)c(=O)c2cc1OC
[1]
  IC50: > 10 µM (inactive)
[2]
  IC50: > 10 µM

## CC(=O)NC1C(c2nc3ccccc3s2)=C(c2ccccc2)C(=O)N1c1ccc(C)cc1 (stereo not given)
[1]
  IC50: 2.62 µM (inactive)
[2]
  IC50: 1.92 µM

## Cc1cc(C(C)(C)C)ccc1OCCN1CCCC1
[1]
  IC50: 17.1 µM
[2]
  IC50: > 10 µM

## COc1ccccc1N1CCN(C2CCN(C(=O)c3cc(OC)c(OC)c(OC)c3)CC2)CC1
[1]
  IC50: > 10 µM (inactive)
[2]
  IC50: > 10 µM

## Clc1cc(Br)ccc1OCCOCCN1CCOCC1
[1]
  IC50: 20.3 µM
[2]
  IC50: > 10 µM

## CCOc1ccc(NC(=O)C/C(N)=N/O)cc1
[1]
  IC50: > 10 µM (inactive)
[2]
  IC50: > 10 µM

## O=C(N/N=C/c1ccc(OC(=O)c2ccccc2)cc1)c1ccc(CN2CCOCC2)cc1
[1]
  IC50: > 10 µM (inactive)
[2]
  IC50: > 10 µM

## COc1ccc(NC(=S)NC(NC(=O)c2ccc(Cl)cc2Cl)C(Cl)(Cl)Cl)c([N+](=O)[O-])c1 (stereo not given)
[1]
  IC50: > 10 µM (inactive)
[2]
  IC50: > 10 µM

## CCc1cc2c(=O)c(Oc3ccccc3F)c(C)oc2c(CN(C)C)c1O
[1]
  IC50: > 10 µM (inactive)
[2]
  IC50: > 10 µM

## O=C(O)c1ccc(N2CCCCC2)cc1
[1]
  IC50: > 10 µM (inactive)
[2]
  IC50: > 10 µM

## Cc1ccc(S(=O)(=O)N(CC(=O)N2CCC(C(N)=O)CC2)c2cccc(C(F)(F)F)c2)cc1
[1]
  IC50: > 10 µM (inactive)
[2]
  IC50: > 10 µM

## CN1/C(=C/C2CC(=O)NC2=O)C(C)(C)c2ccccc21 (stereo not given)
[1]
  IC50: > 10 µM (inactive)
[2]
  IC50: > 10 µM

## O=C(NC1CCCC1)C(c1ccsc1)N(C(=O)Cc1cccs1)c1ccc(F)cc1 (stereo not given)
[1]
  IC50: > 10 µM (inactive)
[2]
  IC50: > 10 µM

## Fc1ccc(-c2noc(C3CCN(Cc4cccnc4)CC3)n2)cc1
[1]
  IC50: 6.05 µM
[2]
  IC50: > 10 µM

## Nc1c(C(=O)OCC2CCCO2)c2nc3ccccc3nc2n1-c1ccc2c(c1)OCCO2 (stereo not given)
[1]
  IC50: > 10 µM (inactive)
[2]
  IC50: > 10 µM

## COc1ccc(CN(C(=O)Cc2cccs2)C(C(=O)NC2CCCC2)c2ccncc2)cc1 (stereo not given)
[1]
  IC50: > 10 µM (inactive)
[2]
  IC50: > 10 µM

## CSc1ncccc1C(=O)OCC(=O)N1CCOCC1
[1]
  IC50: > 10 µM (inactive)
[2]
  IC50: > 10 µM

## COCCNc1cc(C)nc2c3c(C)cc(C)nc3nn12
[1]
  IC50: > 10 µM (inactive)
[2]
  IC50: > 10 µM

## Cc1ccc(N2CCN(S(=O)(=O)N3CCCCCC3)CC2)cc1Cl
[1]
  IC50: > 10 µM (inactive)
[2]
  IC50: > 10 µM

## COc1cccc(C(=O)N2CCN(C3CCC(c4ccccc4)CC3)CC2)c1OC (stereo not given)
[1]
  IC50: 5.37 µM
[2]
  IC50: 23.9 µM

## Cc1cccc(CS(=O)(=O)Cc2ccc(C(=O)NCCCN3CCCC3)o2)c1
[1]
  IC50: > 10 µM (inactive)
[2]
  IC50: > 10 µM

## N#CC1=C(N)NC(SCc2ccc(F)cc2)=C(C#N)C12CCCCC2
[1]
  IC50: 4.84 µM
[2]
  IC50: 16.3 µM

## COc1ccc(N2CCN(c3oc(-c4ccco4)nc3C#N)CC2)cc1
[1]
  IC50: > 10 µM (inactive)
[2]
  IC50: > 10 µM

## Cc1ccc(C2N(c3ccc(Cl)c(Cl)c3)C(=O)C3CCCN32)o1 (stereo not given)
[1]
  IC50: > 10 µM (inactive)
[2]
  IC50: > 10 µM

## CCOC(=O)N1CCN(c2ccc(S(=O)(=O)N(Cc3ccccc3)Cc3ccccc3)cn2)CC1
[1]
  IC50: > 10 µM (inactive)
[2]
  IC50: > 10 µM

## OC(c1ccc(Cl)cc1Cl)C(Cc1cccnc1)n1cncn1 (stereo not given)
[1]
  IC50: > 10 µM (inactive)
[2]
  IC50: > 10 µM

## CCOC(=O)c1cc2c(ccn2C)n1CC(=O)N1CCN(c2ccccc2OC)CC1
[1]
  IC50: > 10 µM (inactive)
[2]
  IC50: > 10 µM
